Source: US20260207569A1, “LPA1 ANTAGONISTS FOR TREATING INTERSTITIAL LUNG DISEASE” (Bristol-Myers Squibb Company, priority 2022, published 2026)

Legend:
Assay type in all cases: in vivo, human
[1] = Phase 1 Part A single ascending dose (SAD) and food effect/pH cohort, blood pressure and safety, healthy participants; details: for Time of maximum mean DBP reduction / Time of maximum mean SBP reduction: within 12 h post dose
Procedure: (§1) The study was performed in 3 parts in 112 healthy male and female participants, including 24 Japanese participants. Female participants were to be not of childbearing potential. The present study was designed to evaluate the safety and tolerability, PK, and exploratory PD of an oral suspension of Compound A. Parts A and B (Cohort B1 only) enrolled healthy participants and was conducted at a site in The Netherlands and Part B (Cohort B2 to B5) enrolled healthy non-Japanese participants and was conducted at a site in the United Kingdom (UK). Part C enrolled healthy Japanese participants and was conducted at the same site in the UK.
Part A was an SAD study in a planned number of 6 sequential dose escalation cohorts (3, 10, 30, 100, 150, or 250 mg) of 8 healthy participants (6 active+2 placebo) each, under fasted conditions. Eligible participants in Part A (excluding those in Cohort A7 [food effect (FE)/pH cohort]) received a single administration of study drug (Compound A or placebo) under fasted conditions. In Cohort A1 to Cohort A6, sentinel dosing was employed (1 active+1 placebo, followed after 48 hours by the remaining participants of the cohort [5 active+1 placebo]). […] In addition to the 6 ascending dose cohorts, a cohort of 6 healthy participants (Cohort A7; 6 active, 100 mg Compound A) was included to assess the effect of food and pH on the bioavailability of Compound A in a 3-period, open-label, fixed-sequence, crossover design (FE/pH cohort).
(§2) Physical examinations, vital sign measurements (including orthostasis testing in Cohort A6, Cohort B3 to B5, and C1 to C3 at selected time points), 12-lead electrocardiogram (ECG), and clinical laboratory evaluations were performed at selected times throughout the study. In addition, Holter monitoring was performed for the first 24 hours post dose on Day 1 in Part A (not in FE/pH cohort), and also for the first 24 hours post dose on Day 1 and Day 14 in Parts B and C. Participants were closely monitored for adverse events (AEs). Blood samples were collected for up to 14 days (follow-up visit) after (last) study drug administration for PK analysis. In addition, blood and urine were collected for exploratory biomarker assessments and for biobanking of samples for potential analyses. Urine was collected for potential PK analysis for up to 96 hours after a single dose of Compound A or placebo was administered in the SAD part, and for up to 24 hours after the first (morning) dose of study drug on Day 1 and for up to 24 hours after the last (morning) dose of study drug on Day 14 in the MAD parts.

[2] = Phase 1 Part C MAD, blood pressure, healthy Japanese participants
Procedure: as §1
Part C was a MAD study in 3 sequential dose escalation cohorts (30 mg BID, 60 mg BID, and 90 mg BID) of 8 healthy Japanese participants (6 active+2 placebo) each. Eligible participants in Cohorts C1 to C3 received study drug (Compound A or placebo) administered orally for 14 days.
as §2

[3] = Phase 1 Part B multiple ascending dose (MAD), blood pressure, healthy participants
Procedure: as §1
Part B was a MAD study in a planned number of 6 sequential dose escalation cohorts (10 mg QD, 30 mg QD, 30 mg BID, 60 mg BID, 125 mg BID, and ≤250 mg BID) of 8 healthy participants (6 active+2 placebo) each, under fasted conditions. However, Cohort B6 (≤250 mg BID) was cancelled because sufficient safety and PK data had been obtained at doses up to 125 mg BID. Eligible participants received study drug (Compound A or placebo) administered orally for 14 days.
as §2

[4] = 100 mg fasted + famotidine (A7)

Question: What does the source list for `CCCN(C)C(=O)OCc1c(-c2ccc(O[C@H]3CCC[C@H](C(=O)O)C3)c(C)n2)nnn1C` [Compound A, (1S,3S)-3-((2-methyl-6-(1-methyl-5-(((methyl(propyl)carbamoyl)-oxy)methyl)-1H-1,2,3-triazol-4-yl)pyridin-3-yl)oxy)cyclohexane-1-carboxylic acid]?
Answer: Time of maximum mean DBP reduction ([1]; 100 mg fasted (A7)): 5 h; Time of maximum mean SBP reduction ([1]; 100 mg fasted (A7)): 8 h; Time of maximum mean DBP reduction [1, 4]: 6 h; Time of maximum mean SBP reduction [1, 4]: 6 h; Time of maximum mean DBP reduction ([1]; 100 mg fed (A7)): 5 h; Time of maximum mean SBP reduction ([1]; 100 mg fed (A7)): 6 h; Time of maximum mean DBP reduction ([1]; SAD 10 mg (A2)): 6 h; Time of maximum mean SBP reduction ([1]; SAD 10 mg (A2)): 8 h; Time of maximum mean DBP reduction ([1]; SAD 30 mg (A3)): 5 h; Time of maximum mean SBP reduction ([1]; SAD 30 mg (A3)): 4 h; Time of maximum mean DBP reduction ([1]; SAD 100 mg (A4)): 5 h; Time of maximum mean SBP reduction ([1]; SAD 100 mg (A4)): 2 h; Time of maximum mean DBP reduction ([1]; SAD 150 mg (A5)): 6 h; Time of maximum mean SBP reduction ([1]; SAD 150 mg (A5)): 6 h; Effect on SBP and DBP ([1]; SAD cohorts): decreased SBP and DBP dose dependently, reversibly, and mostly asymptomatically with minimal effect on heart rate; Safety and tolerability ([1]; single and multiple dose oral administration, healthy participants): generally safe and well tolerated; Time after dosing of maximum BP reduction ([1]; single and multiple dose, healthy participants): 4 to 8 h; Maximum of mean (±SD) reduction in SBP from baseline ([2]; Japanese MAD 30 mg BID (C1)): 15.0 ± 6.84 mmHg; Time of maximum mean SBP reduction ([2]; Japanese MAD 30 mg BID (C1)): 1-4 Day-h; Time of maximum mean DBP reduction ([2]; Japanese MAD 90 mg BID (C2)): 1-6 Day-h; Time of maximum mean SBP reduction ([2]; Japanese MAD 90 mg BID (C2)): 1-6 Day-h; Reductions in mean BP ([2]; Japanese MAD cohorts): no clear Compound A dose-dependent BP reduction trend; Mean DBP ([3]; MAD 60 mg BID, D 14 320 h): 63 mmHg; Mean DBP ([3]; MAD 125 mg BID, D 15 336 h): 63 mmHg; Reductions in BP vs placebo ([3]; MAD BID groups): no clear differences between placebo and the Compound A groups; Reductions in mean SBP and DBP ([3]; MAD QD groups): reductions generally occurred in a Compound A dose-dependent manner
